In US9938273B2 (Plexxikon Inc., priority 2015, dated 2018):

Key:
[1] = tested on: MOLM-14 D835Y cells, FLT3 ITD and FLT3 D835Y; assay: Cell proliferation assay (CellTiter-Glo), MOLM-14 D835Y; type: cell-based; details: Homo sapiens, 72 h, 3d-Growth, GMean
Procedure, shortened: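 Three-day growth at 37 °C, 5% CO2 under compound (1 μM top final, 1:3 dilutions, eight points, 0.2% DMSO), read as ATP luminescence by CellTiter-Glo for IC50. Cells: MOLM-14 with FLT3 ITD plus D835Y or F691L, and IL-3-deprived Ba/F3 transfected with FLT3 ITD/D835Y, 1×10^4 per well.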

[2] = biological target: T1, FLT3-ITD (Homo sapiens, UniProt P36888); assay: AlphaScreen kinase assay with recombinant enzyme, FLT3-ITD; type: biochemical; details: 8pt; read-out: FLT3_ITD 8pt: IC50
T1 sequence (P36888 1-993): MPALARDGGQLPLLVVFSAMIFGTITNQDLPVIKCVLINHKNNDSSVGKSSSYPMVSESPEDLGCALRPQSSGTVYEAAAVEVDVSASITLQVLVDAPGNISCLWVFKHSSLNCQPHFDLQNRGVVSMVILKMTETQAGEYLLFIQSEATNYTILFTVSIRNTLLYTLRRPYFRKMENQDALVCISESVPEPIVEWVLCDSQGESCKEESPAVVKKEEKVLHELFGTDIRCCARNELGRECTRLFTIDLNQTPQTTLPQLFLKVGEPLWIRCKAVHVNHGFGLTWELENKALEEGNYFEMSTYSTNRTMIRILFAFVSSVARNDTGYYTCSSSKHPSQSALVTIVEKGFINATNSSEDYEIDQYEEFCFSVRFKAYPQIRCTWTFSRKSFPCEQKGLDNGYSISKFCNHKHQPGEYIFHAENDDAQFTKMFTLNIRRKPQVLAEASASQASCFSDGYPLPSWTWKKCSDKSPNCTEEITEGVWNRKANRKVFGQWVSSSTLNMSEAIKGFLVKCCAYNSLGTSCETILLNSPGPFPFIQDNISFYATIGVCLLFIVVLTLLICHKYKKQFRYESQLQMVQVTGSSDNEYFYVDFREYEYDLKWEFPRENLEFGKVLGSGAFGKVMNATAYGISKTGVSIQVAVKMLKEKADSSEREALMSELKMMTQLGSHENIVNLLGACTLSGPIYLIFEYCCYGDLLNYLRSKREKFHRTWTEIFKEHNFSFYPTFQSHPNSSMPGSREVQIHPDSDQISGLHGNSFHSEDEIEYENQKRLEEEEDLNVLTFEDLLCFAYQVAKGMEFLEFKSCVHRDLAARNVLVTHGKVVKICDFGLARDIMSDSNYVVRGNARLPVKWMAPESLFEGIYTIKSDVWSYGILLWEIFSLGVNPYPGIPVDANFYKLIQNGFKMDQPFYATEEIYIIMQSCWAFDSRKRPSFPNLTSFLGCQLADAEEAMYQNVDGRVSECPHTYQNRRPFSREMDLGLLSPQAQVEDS
Procedure, shortened: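 AlphaScreen, biotinylated poly(Glu4-Tyr) 30 nM final; PY20 anti-pTyr acceptor and streptavidin donor beads 10 μg/mL; IC50 final conc. 10 μM (FLT3-D835Y, FLT3-ITD) / 100 μM (c-KIT); detection incubations 20 + 60 min RT; 580 nm emission.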

SMILES | IC50 [1] | IC50 [2]
NC1CCN(C(=O)c2n[nH]c3ccc(-c4cnc5[nH]c(-c6ccccc6)cc5c4)cc23)CC1 [Compound P-0012, (4-amino-1-piperidyl)-[5-(2-phenyl-1H-pyrrolo[2,3-b]pyridin-5-yl)-1H-indazol-3-yl]methanone] | 0.0001 to 10 µM | 0.0001 to 10 µM
COC1CN(C(=O)c2cccc(-c3cnc4[nH]c(-c5ccccc5)cc4c3)n2)C1 [Compound P-0091, (3-methoxyazetidin-1-yl)-[6-(2-phenyl-1H-pyrrolo[2,3-b]pyridin-5-yl)-2-pyridyl]methanone] | 0.0001 to 10 µM | 0.0001 to 10 µM
O=S(=O)(NC1CCNC1)c1cccc(-c2cnc3[nH]c(-c4ccccc4)cc3c2)n1 (centres unmarked) [Compound P-0072, 6-(2-phenyl-1H-pyrrolo[2,3-b]pyridin-5-yl)-N-pyrrolidin-3-yl-pyridine-2-sulfonamide] | 0.0001 to 10 µM | 0.0001 to 10 µM
CC(C)(C#N)NC(=O)c1cccc(-c2cnc3[nH]c(-c4cnc(C(C)(C)O)nc4)cc3c2)n1 [Compound P-0211, N-(1-cyano-1-methyl-ethyl)-6-[2-[2-(1-hydroxy-1-methyl-ethyl)pyrimidin-5-yl]-1H-pyrrolo[2,3-b]pyridin-5-yl]pyridine-2-carboxamide] | 0.0001 to 10 µM | 0.0001 to 10 µM
COc1ncc(-c2cc3cc(-c4cccc(C(=O)NC(C)(C)C#N)n4)cnc3[nH]2)cn1 [Compound P-0196, N-(1-cyano-1-methyl-ethyl)-6-[2-(2-methoxypyrimidin-5-yl)-1H-pyrrolo[2,3-b]pyridin-5-yl]pyridine-2-carboxamide] | 0.0001 to 10 µM | 0.0001 to 10 µM
CNC1CCN(C(=O)c2cccc(-c3cnc4[nH]c(-c5ccc(F)cc5)cc4c3)n2)C1 (centres unmarked) [Compound P-0055, [6-[2-(4-fluorophenyl)-1H-pyrrolo[2,3-b]pyridin-5-yl]-2-pyridyl]-[3-(methylamino)pyrrolidin-1-yl]methanone] | 0.0001 to 10 µM | 0.0001 to 10 µM
CNC1CCN(C(=O)c2cccc(-c3cnc4[nH]c(-c5cnn(CC(F)(F)F)c5)cc4c3)n2)C1 (centres unmarked) [Compound P-0061, [3-(methylamino)pyrrolidin-1-yl]-[6-[2-[1-(2,2,2-trifluoroethyl)pyrazol-4-yl]-1H-pyrrolo[2,3-b]pyridin-5-yl]-2-pyridyl]methanone] | 0.0001 to 10 µM | 0.0001 to 10 µM
CN1CCC(NC(=O)c2cccc(-c3cnc4[nH]c(-c5ccccc5)cc4c3)n2)C1 (centres unmarked) [Compound P-0064, N-(1-methylpyrrolidin-3-yl)-6-(2-phenyl-1H-pyrrolo[2,3-b]pyridin-5-yl)pyridine-2-carboxamide] | 0.0001 to 10 µM | 0.0001 to 10 µM
CC(C)(C#N)NC(=O)c1cccc(-c2cnc3[nH]c(-c4cnc(N5CCCC5)nc4)cc3c2)n1 [Compound P-0202, N-(1-cyano-1-methyl-ethyl)-6-[2-(2-pyrrolidin-1-ylpyrimidin-5-yl)-1H-pyrrolo[2,3-b]pyridin-5-yl]pyridine-2-carboxamide] | 0.0001 to 10 µM | 0.0001 to 10 µM
CCOc1ncc(-c2cc3cc(-c4cccc(C(=O)NC(C)(C)C#N)n4)cnc3[nH]2)cn1 [Compound P-0203, N-(1-cyano-1-methyl-ethyl)-6-[2-(2-ethoxypyrimidin-5-yl)-1H-pyrrolo[2,3-b]pyridin-5-yl]pyridine-2-carboxamide] | 0.0001 to 10 µM | 0.0001 to 10 µM
CNCC1CCN(C(=O)c2cccc(-c3cnc4[nH]c(-c5ccccc5)cc4c3)n2)C1 (centres unmarked) [Compound P-0079, [3-(methylaminomethyl)pyrrolidin-1-yl]-[6-(2-phenyl-1H-pyrrolo[2,3-b]pyridin-5-yl)-2-pyridyl]methanone] | 0.0001 to 10 µM | 0.0001 to 10 µM
CNC1CCN(C(=O)c2cccc(-c3cnc4[nH]c(-c5ccccc5)cc4c3)n2)C1 (centres unmarked) [Compound P-0040, [3-(methylamino)pyrrolidin-1-yl]-[6-(2-phenyl-1H-pyrrolo[2,3-b]pyridin-5-yl)-2-pyridyl]methanone] | 0.0001 to 10 µM | 0.0001 to 10 µM
NC1(C(F)(F)F)CCN(C(=O)c2cccc(-c3cnc4[nH]c(-c5ccccc5)cc4c3)n2)C1 (centres unmarked) [Compound P-0077, [3-amino-3-(trifluoromethyl)pyrrolidin-1-yl]-[6-(2-phenyl-1H-pyrrolo[2,3-b]pyridin-5-yl)-2-pyridyl]methanone] | 0.0001 to 10 µM | 0.0001 to 10 µM
CNC1CCN(C(=O)c2cccc(-c3cnc4[nH]c(-c5cccc(C#N)c5)cc4c3)n2)C1 (centres unmarked) [Compound P-0062, 3-[5-[6-[3-(methylamino)pyrrolidine-1-carbonyl]-2-pyridyl]-1H-pyrrolo[2,3-b]pyridin-2-yl]benzonitrile] | 0.0001 to 10 µM | 0.0001 to 10 µM
CNC1CCN(C(=O)c2cccc(-c3cnc4[nH]c(-c5ccnc(OC)c5)cc4c3)n2)C1 (centres unmarked) [Compound P-0060, [6-[2-(2-methoxy-4-pyridyl)-1H-pyrrolo[2,3-b]pyridin-5-yl]-2-pyridyl]-[3-(methylamino)pyrrolidin-1-yl]methanone] | 0.0001 to 10 µM | 0.0001 to 10 µM
CC(C)(C#N)NC(=O)c1cccc(-c2cnc3[nH]c(-c4cncnc4)cc3c2)n1 [Compound P-0195, N-(1-cyano-1-methyl-ethyl)-6-(2-pyrimidin-5-yl-1H-pyrrolo[2,3-b]pyridin-5-yl)pyridine-2-carboxamide] | 0.0001 to 10 µM | 0.0001 to 10 µM
CC1(N)CCN(C(=O)c2cccc(-c3cnc4[nH]c(-c5ccccc5)cc4c3)n2)C1 (centres unmarked) [Compound P-0078, (3-amino-3-methyl-pyrrolidin-1-yl)-[6-(2-phenyl-1H-pyrrolo[2,3-b]pyridin-5-yl)-2-pyridyl]methanone] | 0.0001 to 10 µM | 0.0001 to 10 µM
CC(C)(C#N)NC(=O)c1cccc(-c2cnc3[nH]c(-c4ccc(C5(C#N)CC5)cc4)cc3c2)n1 [Compound P-0194, 6-[2-[4-(1-cyanocyclopropyl)phenyl]-1H-pyrrolo[2,3-b]pyridin-5-yl]-N-(1-cyano-1-methyl-ethyl)pyridine-2-carboxamide] | 0.0001 to 10 µM | 0.0001 to 10 µM
CNC1CCN(S(=O)(=O)c2cccc(-c3cnc4[nH]c(-c5ccccc5)cc4c3)n2)C1 (centres unmarked) [Compound P-0063, N-methyl-1-[[6-(2-phenyl-1H-pyrrolo[2,3-b]pyridin-5-yl)-2-pyridyl]sulfonyl]pyrrolidin-3-amine] | 0.0001 to 10 µM | 0.0001 to 10 µM
CNC1CCN(C(=O)c2cccc(-c3cnc4[nH]c(C5=CCC(C)(C)CC5)cc4c3)n2)C1 (centres unmarked) [Compound P-0070, [6-[2-(4,4-dimethylcyclohexen-1-yl)-1H-pyrrolo[2,3-b]pyridin-5-yl]-2-pyridyl]-[3-(methylamino)pyrrolidin-1-yl]methanone] | 0.0001 to 10 µM | 0.0001 to 10 µM
O=C(c1cccc(-c2cnc3[nH]c(-c4ccccc4)cc3c2)n1)N1CC(F)(F)C1 [Compound P-0090, (3,3-difluoroazetidin-1-yl)-[6-(2-phenyl-1H-pyrrolo[2,3-b]pyridin-5-yl)-2-pyridyl]methanone] | 0.0001 to 10 µM | 0.0001 to 10 µM
O=C(c1cccc(-c2cnc3[nH]c(-c4ccccc4)cc3c2)n1)N1CCC(NC2CC2)C1 (centres unmarked) [Compound P-0085, [3-(cyclopropylamino)pyrrolidin-1-yl]-[6-(2-phenyl-1H-pyrrolo[2,3-b]pyridin-5-yl)-2-pyridyl]methanone] | 0.0001 to 10 µM | 0.0001 to 10 µM
NC1CCN(S(=O)(=O)c2cccc(-c3cnc4[nH]c(-c5ccccc5)cc4c3)n2)CC1 [Compound P-0073, 1-[[6-(2-phenyl-1H-pyrrolo[2,3-b]pyridin-5-yl)-2-pyridyl]sulfonyl]piperidin-4-amine] | 0.0001 to 10 µM | 0.0001 to 10 µM
CCCOc1ncc(-c2cc3cc(-c4cccc(C(=O)NC(C)(C)C#N)n4)cnc3[nH]2)cn1 [Compound P-0206, N-(1-cyano-1-methyl-ethyl)-6-[2-(2-propoxypyrimidin-5-yl)-1H-pyrrolo[2,3-b]pyridin-5-yl]pyridine-2-carboxamide] | 0.0001 to 10 µM | 0.0001 to 10 µM
O=S(=O)(NC1CNC1)c1cccc(-c2cnc3[nH]c(-c4ccccc4)cc3c2)n1 [Compound P-0071, N-(azetidin-3-yl)-6-(2-phenyl-1H-pyrrolo[2,3-b]pyridin-5-yl)pyridine-2-sulfonamide] | 0.0001 to 10 µM | 0.0001 to 10 µM
